From patent US11903956B2, “Compositions and products for infectious or inflammatory diseases or conditions” (B&H BIOTECHNOLOGIES, LLC, priority 2013, dated 2024)

Assays:
[1] = tested on: dogs suffered from acute diarrhea; assay: Treatment of diarrhea of dogs with formula-2.2; assay type: in vivo
Description: Two groups of dogs suffered from acute diarrhea with the symptoms of vomiting, depression, dehydration, listlessness, an increased frequency of diarrhea were treated once per day via oral administration or intramuscular injection with: 1) Cephradine according to manufacture's instruction (antibiotic group, n=15); and 2) 1.5 ml/kg of body weight of the formula-2.2 (n=10). Eight out ten (8/10, 80%) of the dogs stopped diarrhea after one dose of the treatment with formula-2.2.

[2] = tested on: sucking piglets with yellow watery diarrhea or infective gastroenteritis; assay: Treatment of piglet diarrhea at ages 1-5 days with formulations; assay type: in vivo
Text: Diarrhea is a common disorder with sucking or weaning piglets. Viral or bacterial infections are common causes of piglet diarrhea. Piglets with viral diarrhea usually have yellow watery stools and piglets with bacterial diarrhea usually have gray stools. Sometimes, yellow diarrhea is accompanied with vomiting showing the characteristic of infective gastroenteritis. Often, piglet diarrhea or infective gastroenteritis is caused by mixed infection of viruses and bacteria. Piglets younger than one week could have a serious viral diarrhea or infective gastroenteritis with high death rates from about 70% to over 90%.
The formulations of 1.2, 2.2, 3.2 and 4.2 as prepared above in 6.1 were used for the treatment of diarrhea piglets at ages 1-5 days. […] In addition, combination of formula 1.2 and Enrofloxacin was also used for the treatment of piglet diarrhea.
Seven groups of sucking piglets with yellow watery diarrhea or infective gastroenteritis at ages of 1-5 days were treated once per day via oral administration or muscular injection with: 1) 1 ml/kg of body weight of ORS alone (control group, n=50); 2) Enrofloxacin according to manufacture's instruction (antibiotic control, n=69); 3) 1 ml/kg of body weight of the formula-1.2 (n=49); 4) 1 ml/kg of body weight of the formula-2.2 (n=82); 5) 1 ml/kg of body weight of the formula-3.2 (n=55); 6) 1 ml/kg of body weight of the […]; and 7) 1 ml/kg of body weight of the formula-1.2 plus Enrofloxacin (n=32).

[3] = tested on: sucking or weaning piglets with various diarrheas or infective gastroenteritis; assay: Treatment of piglet diarrhea at ages 5-40 days with formula-2.2; assay type: in vivo
Description: The formula-2.2 as prepared above in 6.1 was used for the treatment of diarrhea piglets at ages 5-40 days.
Two groups of sucking or weaning piglets with various diarrheas or infective gastroenteritis at ages of 5-40 days were treated once per day via oral administration with: 1) Enrofloxacin according to manufacture's instruction (antibiotic group, n=139); and 2) 1 ml/kg of body weight of the formula-2.2 (n=262).

rhesus rotavirus (RRV) = assay: Treatment of rotavirus infection of mouse pups with formulations; settings: RRV-infected mouse pups
[4] = tested on: influenza virus of A/PR/8/34(H1N1); assay type: in vivo, mouse
[5] = tested on: respiratory infections accompanied with the respiratory syndrome (asthma); assay: Treatment of respiratory infections or disorders of piglets; assay type: in vivo
Text: The formulations of 1.2 and 3.2 as prepared above in 6.1 were used for the prevention and treatment of respiratory infections or disorders of piglets. The ORS alone and a commercially available antibiotic product, Timicosin were used as controls. In addition, combination of formula 3.2 and Timicosin was used for the treatment of respiratory infections or disorders of piglets.
Weaning piglets (10˜15 kg, aged 5-7 weeks) suffered from respiratory infections accompanied with the respiratory syndrome characterized by asthma-like symptoms (difficulty with breath). The sick piglets were treated separately once a day via oral administration or intramuscular injection with 1) Tilmicosin according to manufacture's instructions (n=39); 2) 1 ml/kg of body weight of the formula-3.2 (n=36); and 3) Tilmicosin and 1 ml/kg of body weight of the formula-3.2 (n=41).

[6] = tested on: dogs suffered from respiratory infections; assay: Treatment of respiratory infections of dogs; assay type: in vivo
Description: The formula-3.2 as prepared above in 6.1 was used via oral administration for the prevention or treatment of respiratory infections or disorders of dogs.
Two groups of dogs suffered from respiratory infections with the symptoms of runny nose, coughing, chills, fever and weakness/fatigue (etc.) were treated once per day via oral administration or intramuscular injection with: 1) Tulathromycin according to manufacture's instruction (antibiotic group, n=6); 2) 1.5 ml/kg of body weight of the formula-3.2 (n =6); and 3) Tulathromycin and 1.5 ml/kg of body weight of the formula-3.2 (n=9).

With `CC1=C(C(=O)O)N2C(=O)[C@@H](NC(=O)[C@H](N)C3=CCC=CC3)[C@H]2SC1` [Cephradine] the “Later Rec (recovered after 24 hours), number of dogs” value ([1]; dogs with acute diarrhea) was 14, the “Early Rec (recovered within 24 hours), number of dogs” value ([1]; dogs with acute diarrhea, once per day) was 1 and the OR ([1]; early recovery) was 0.02. The “Rate (%) of early recovery” value ([1]; recovered within 24 hours) was 6.67%.

For `CCN1CCN(c2cc3c(cc2F)c(=O)c(C(=O)O)cn3C2CC2)CC1` [Enrofloxacin], the “No death (number of piglets)” value ([2]; diarrhea piglets aged 1-5 days) was 21, the “OR(risk) of death” value ([2]; diarrhea piglets aged 1-5 days) was 0.19 and the “Rate (%) death rate” value ([2]; diarrhea piglets aged 1-5 days) was 69.6%. The “Death (number of piglets)” value ([2]; diarrhea piglets aged 1-5 days, once per day) was 48, the “day after treatment at which majority of piglets stopped diarrhea” value ([2]; one dose treatment every day) was 4 to 5 days and the “day at which majority of piglets stopped diarrhea” value ([3]; after 4-5 dose treatment (one dose every day)) was 4 to 5 days. For the same compound, the “Later Rec (recovered after 48 hours), number of piglets” value ([3]; diarrhea piglets aged 5-40 days) was 136, the “Early Rec (recovered within 48 hours), number of piglets” value ([3]; diarrhea piglets aged 5-40 days, oral once per day) was 3 and the OR ([3]; early recovery) was 0.001. For the same compound, the “Rate (%) of early recovery” value ([3]; recovered within 48 hours) was 2.16%, the “OR(effect)” value (rhesus rotavirus (RRV)) was 0.06 and the “OR(risk) of death” value (rhesus rotavirus (RRV)) was 0.76. The duration of diarrhea (rhesus rotavirus (RRV)) was 3 to 4 days, the “outcome in words (diarrhea severity, death rate, efficacy)” value (rhesus rotavirus (RRV)) was “serious” and the “Not effect (number of pups)” value (rhesus rotavirus (RRV); 50 μl oral once per day) was 48. For the same compound, the “Effect (number of pups)” value (rhesus rotavirus (RRV); 50 μl oral once per day, […]) was 3, the “Death (number of pups)” value (rhesus rotavirus (RRV); kept 3 weeks) was 12 and the “Death Rate(%)” value (rhesus rotavirus (RRV); kept 3 weeks) was 23.5%. The “Not died (number of pups)” value (rhesus rotavirus (RRV); kept 3 weeks) was 39 and the “Rate(%) of effect” value (rhesus rotavirus (RRV); […]) was 5.88%.

With `CCOC(=O)C1=C[C@@H](OC(CC)CC)[C@H](NC(C)=O)[C@@H](N)C1` [Tamiflu] the “Odds Ratio of death” value ([4]; influenza infection of mice) was 0.36, the “Death (number of mice)” value ([4]; mouse, in vivo, ip) was 21 and the “Rate (%) death rate” value ([4]; mouse, in vivo, ip) was 70%.

For `CC[C@H]1OC(=O)C[C@@H](O)[C@H](C)[C@@H](O[C@@H]2O[C@H](C)[C@@H](O)[C@H](N(C)C)[C@H]2O)[C@@H](CCN2C[C@H](C)C[C@H](C)C2)C[C@@H](C)C(=O)/C=C/C(C)=C/[C@@H]1CO[C@@H]1O[C@H](C)[C@@H](O)[C@@H](OC)[C@H]1OC` [Tilmicosin], the “doses needed for getting recovered” value ([5]; in vivo) was 4-5 doses, the “Odds Ratio of death” value ([5]; piglets with respiratory syndrome) was 3.63 and the “Rate (%) death” value ([5]; weaning piglets with respiratory syndrome (asthma)) was 28.2%. The “Death (number of piglets)” value ([5]; weaning piglets with respiratory syndrome (asthma), once a day) was 11.

For `CCCNC[C@]1(O)[C@H](C)O[C@@H](O[C@H]2[C@H](C)[C@@H](O[C@@H]3O[C@H](C)C[C@H](N(C)C)[C@H]3O)[C@](C)(O)C[C@@H](C)CN[C@H](C)[C@@H](O)[C@](C)(O)[C@@H](CC)OC(=O)[C@@H]2C)C[C@@]1(C)OC` [Tulathromycin], the “doses needed for getting recovered” value ([6]; dog, in vivo) was 4-7 doses, the “Later Rec, number of dogs” value ([6]; dogs with respiratory infections) was 5 and the “Early Rec (recovered within 48-72 hours), number of dogs” value ([6]; dogs with respiratory infections, once per day) was 1. For the same compound, the OR ([6]; early recovery) was 0.04 and the “Rate (%) of early recovery” value ([6]; recovered within 48-72 hours) was 16.7%.
